Experiment [1] has as its system subcutaneously pentetrazol-injected model (scPTZ). The experiment in a line: Subcutaneously pentetrazol-injected model (scPTZ) test. Type of experiment: in vivo, mice. Conditions: pentetrazol 85 mg/kg s.c. after 1 hour; for responders at 100 mg/kg / responders at 50 mg/kg: Mus musculus, po, 1 h, read-out: scPTZ (positive number/tested number) (converted); for responders at 50 mg/kg: 50 mg/kg oral; for anticonvulsant action in subcutaneously pentetrazol-injected model (scPTZ) test: mice, oral 50 or 100 mg/kg. A digest of the protocol:
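Male Slc:ddY mice (20-30 g, 3 per group) dosed orally at 50 or 100 mg/kg; pentetrazol 85 mg/kg given subcutaneously 1 h later. Controls received 0.5% tragacanth or 0.5% methylcellulose vehicle.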

The test system of experiment [2] is maximum electroshock seizure (MES) model. The experiment can be described thus: Maximum electroshock seizure (MES) model test. Type of experiment: in vivo, mice. The note with it: for responders at 100 mg/kg / responders at 50 mg/kg: Mus musculus, po, 1 h, read-out: MES (positive number/tested number) (converted); for responders at 50 mg/kg: 50 mg/kg oral; for anticonvulsant action in maximum electroshock seizure (MES) model test: mice, oral 50 or 100 mg/kg, 1 hour after administration. A digest of the protocol: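 Male Slc: ddY mice (3 per group, 20-30 g) received compound orally at 50 or 100 mg/kg; controls got 0.5% tragacanth or 0.5% methylcellulose. One hour post-dose, corneal stimulation (60 Hz, 25 mA, 0.2 s) induced tonic hind-limb extensor convulsion.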

The mark [3] stands for this setting: 100 mg/kg oral, Slc: ddY male mice, 3 per group, observed 30 minutes for clonic convulsion.
The mark [4] stands for this setting: 100 mg/kg oral, Slc: ddY male mice, 3 per group, electrical stimulation 1 hour after administration, inhibition of hind limb extension.
Setting [5] is: Slc: ddY male mice, 3 per group, observed 30 minutes for clonic convulsion.
[6] abbreviates: Slc: ddY male mice, 3 per group, electrical stimulation 1 hour after administration, inhibition of hind limb extension.

Consider `NC(=O)Cc1ccccc1-c1cccc(Cl)c1F` [Example 85], for which the responders at 100 mg/kg in experiment [1] (setting [3]) is 33.3%; in experiment [2] (setting [4]) it was 100%.

`NC(=O)Cc1ccccc1-c1cc(Cl)ccc1F` [Example 87, 2-(5′-chloro-2′-fluorobiphenyl-2-yl)acetamide]: the responders at 50 mg/kg in experiment [1] (setting [5]) is 0%; in experiment [2] (setting [6]), 33.3%. The responders at 100 mg/kg in experiment [1] (setting [3]) is 66.7%; in experiment [2] (setting [4]), 100%.

As to `NC(=O)Cc1ccccc1-c1ccc(F)c(F)c1F` [Example 89, 2-(2′,3′,4′-trifluorobiphenyl-2-yl)acetamide], the responders at 50 mg/kg in experiment [1] (setting [5]) is 33.3%; in experiment [2] (setting [6]), 0%. The results for the responders at 100 mg/kg in experiment [1] (setting [3]) and in experiment [2] (setting [4]) were 66.7% and 100%, respectively.

Consider `NC(=O)Cc1ccccc1-c1cc(F)c(F)c(F)c1` [Example 90, 2-(3′,4′,5′-trifluorobiphenyl-2-yl)acetamide], for which the responders at 50 mg/kg in experiment [1] (setting [5]) and in experiment [2] (setting [6]) was 66.7% each time. Also, the responders at 100 mg/kg in experiment [1] (setting [3]) and in experiment [2] (setting [4]) was 66.7% throughout. Besides, the “anticonvulsant action in subcutaneously pentetrazol-injected model (scPTZ) test” value in experiment [1] is “anticonvulsant action was observed”. In experiment [2], the “anticonvulsant action in maximum electroshock seizure (MES) model test” value is given as “anticonvulsant action was observed”.

As for `CS(=O)(=O)c1ccc(-c2ccccc2CC(N)=O)cc1` [Example 92], the “scPTZ (positive number/tested number)” value in experiment [1] (setting [3]) is on record as 1/3. The “MES (positive number/tested number)” value in experiment [2] (setting [4]) is on record as 0/3.

Consider `NC(=O)Cc1ccccc1-c1cc(Cl)ccc1Cl` [Example 95, 2-(2′,5′-dichlorobiphenyl-2-yl)acetamide], for which the responders at 50 mg/kg in experiment [1] (setting [5]) is 0%; in experiment [2] (setting [6]), 33.3%. In addition, the results for the responders at 100 mg/kg in experiment [1] (setting [3]) and in experiment [2] (setting [4]) were 100% and 66.7%, respectively.

On to `NC(=O)Cc1ccccc1-c1cc(C(F)(F)F)ccc1Cl` [Example 96], for which the responders at 100 mg/kg was 66.7% in experiment [1] (setting [3]) and 33.3% in experiment [2] (setting [4]).

Regarding `CNC(=O)Cc1ccccc1-c1ccc(C(F)(F)F)cc1F` [Example 97], the responders at 100 mg/kg is 33.3% in experiment [1] (setting [3]) and 66.7% in experiment [2] (setting [4]). Moreover, in experiment [2] (setting [6]), the responders at 50 mg/kg was 33.3%.

Turning to `CNC(=O)Cc1ccccc1-c1cccc(C(F)(F)F)c1F` [Example 98], the values for the responders at 100 mg/kg in experiment [1] (setting [3]) and in experiment [2] (setting [4]) were 0% and 66.7%, respectively. Further, in experiment [2] (setting [6]), the responders at 50 mg/kg was 0%.

In the case of `CNC(=O)Cc1ccccc1-c1cccc(OC(F)(F)F)c1` [Example 99, N-methyl-2-[3′-(trifluoromethoxy)biphenyl-2-yl]acetamide], the responders at 100 mg/kg in experiment [1] (setting [3]) is 33.3%; in experiment [2] (setting [4]), 100%. Moreover, the responders at 50 mg/kg in experiment [2] (setting [6]) was 66.7%.

Regarding `CNC(=O)Cc1ccccc1-c1cccc(SC)c1` [Example 100], the responders at 100 mg/kg in experiment [1] (setting [3]) is 100%; in experiment [2] (setting [4]) it was 0%.

On to `CNC(=O)Cc1ccccc1-c1cc(F)ccc1C(F)(F)F` [Example 101], for which the responders at 100 mg/kg was 0% in experiment [1] (setting [3]) and 100% in experiment [2] (setting [4]).

In the case of `CNC(=O)Cc1ccccc1-c1cc(F)cc(C(F)(F)F)c1` [Example 102], the responders at 100 mg/kg is 66.7% in experiment [1] (setting [3]) and 0% in experiment [2] (setting [4]).

For `CNC(=O)Cc1ccccc1-c1ccc(OC(F)(F)F)cc1` [Example 103], the responders at 100 mg/kg in experiment [1] (setting [3]) was 33.3%; in experiment [2] (setting [4]), 100%.

On to `CNC(=O)Cc1ccccc1-c1ccc(F)cc1C(F)(F)F` [Example 104], for which the responders at 100 mg/kg in experiment [1] (setting [3]) was 0%; in experiment [2] (setting [4]), 100%.

In the case of `CNC(=O)Cc1ccccc1-c1ccc(Cl)cc1C(F)(F)F` [Example 105], the responders at 100 mg/kg in experiment [1] (setting [3]) was 66.7%; in experiment [2] (setting [4]) it was 0%.

Turning to `N#Cc1ccc(-c2ccccc2CC(N)=O)c(F)c1` [Example 106], the responders at 100 mg/kg is 66.7% in experiment [1] (setting [3]) and 0% in experiment [2] (setting [4]).

In the case of `N#Cc1ccc(Cl)cc1-c1ccccc1CC(N)=O` [Example 107], the responders at 100 mg/kg in experiment [1] (setting [3]) is 100%; in experiment [2] (setting [4]), 0%.

On to `N#Cc1c(-c2ccccc2CC(N)=O)cccc1C(F)(F)F` [Example 108], for which the responders at 100 mg/kg is 66.7% in experiment [1] (setting [3]) and 0% in experiment [2] (setting [4]).

As to `NC(=O)Cc1cc(Cl)ccc1-c1ccc(Cl)cc1` [Example 109, 2-(4,4′-dichlorobiphenyl-2-yl)acetamide], the values for the responders at 50 mg/kg in experiment [1] (setting [5]) and in experiment [2] (setting [6]) were 66.7% and 100%, respectively. Further, the responders at 100 mg/kg in experiment [1] (setting [3]) and in experiment [2] (setting [4]) was 100% in each case. Also, the “anticonvulsant action in subcutaneously pentetrazol-injected model (scPTZ) test” value in experiment [1] is recorded as “anticonvulsant action was observed”. Also, the “anticonvulsant action in maximum electroshock seizure (MES) model test” value in experiment [2] is recorded as “anticonvulsant action was observed”.

As for `NC(=O)Cc1cc(F)c(F)cc1-c1ccccc1` [Example 110], the responders at 100 mg/kg was 33.3% in experiment [1] (setting [3]) and 66.7% in experiment [2] (setting [4]). Also, the responders at 50 mg/kg in experiment [2] (setting [6]) is 0%.

Take `Cc1ccc(-c2ccccc2)c(CC(N)=O)c1` [Example 111]: the responders at 50 mg/kg in experiment [1] (setting [5]) was 33.3%. Further, the responders at 100 mg/kg in experiment [1] (setting [3]) is 66.7%; in experiment [2] (setting [4]), 0%.

As to `NC(=O)Cc1ccc([N+](=O)[O-])cc1-c1ccccc1` [Example 112], in experiment [1] (setting [5]), the responders at 50 mg/kg is 33.3%. Further, the responders at 100 mg/kg in experiment [1] (setting [3]) is 66.7%; in experiment [2] (setting [4]), 33.3%.

For the compound `NC(=O)Cc1ccc([N+](=O)[O-])cc1-c1ccccc1F` [Example 113, 2-(2′-fluoro-5-nitrobiphenyl-2-yl)acetamide], the responders at 100 mg/kg in experiment [1] (setting [3]) is 33.3%; in experiment [2] (setting [4]) it was 100%. The responders at 50 mg/kg in experiment [2] (setting [6]) was 66.7%.

As for `NC(=O)Cc1cc(F)ccc1-c1ccc(F)cc1` [Example 114, 2-(4,4′-difluorobiphenyl-2-yl)acetamide], the results for the responders at 100 mg/kg in experiment [1] (setting [3]) and in experiment [2] (setting [4]) were 33.3% and 100%, respectively. Besides, the responders at 50 mg/kg in experiment [2] (setting [6]) was 100%.

As for `CNC(=O)Cc1cc(F)ccc1-c1ccc(F)cc1` [Example 115, 2-(4,4′-difluorobiphenyl-2-yl)-N-methylacetamide], the responders at 100 mg/kg in experiment [1] (setting [3]) was 0%; in experiment [2] (setting [4]), 100%. Moreover, the responders at 50 mg/kg in experiment [2] (setting [6]) is 100%.

For `NC(=O)Cc1cc(C(F)(F)F)ccc1-c1ccccc1` [Example 116], the responders at 50 mg/kg in experiment [1] (setting [5]) was 33.3%. Also, the responders at 100 mg/kg in experiment [1] (setting [3]) was 66.7%; in experiment [2] (setting [4]), 0%.

As for `CNC(=O)Cc1cc(C(F)(F)F)ccc1-c1ccccc1` [Example 117], the responders at 50 mg/kg in experiment [1] (setting [5]) was 33.3%. Besides, the responders at 100 mg/kg in experiment [1] (setting [3]) was 66.7%; in experiment [2] (setting [4]) it was 0%.

For `NC(=O)Cc1c(F)cccc1-c1ccccc1` [Example 118, 2-(3-fluorobiphenyl-2-yl)acetamide], the figures for the responders at 100 mg/kg in experiment [1] (setting [3]) and in experiment [2] (setting [4]) were 33.3% and 100%, respectively. The responders at 50 mg/kg in experiment [2] (setting [6]) is 100%.

In the case of `CNC(=O)Cc1c(F)cccc1-c1ccccc1` [Example 119, 2-(3-fluorobiphenyl-2-yl)-N-methylacetamide], the responders at 100 mg/kg in experiment [1] (setting [3]) is 0%; in experiment [2] (setting [4]), 100%. In experiment [2] (setting [6]), the responders at 50 mg/kg is 100%.

Regarding `NC(=O)Cc1ccc(F)cc1-c1cccc(F)c1` [Example 120], the responders at 100 mg/kg was 33.3% in experiment [1] (setting [3]) and 100% in experiment [2] (setting [4]). Further, the responders at 50 mg/kg in experiment [2] (setting [6]) was 0%.
